Here are results for two compounds from ChEMBL document CHEMBL2380199, “Ostreol A: a new cytotoxic compound isolated from the epiphytic dinoflagellate Ostreopsis cf. ovata from the coastal waters of Jeju Island, Korea” (Bioorg Med Chem Lett, 2013).

Converted amounts (≈) assume the structure as drawn.

The data set in a line: Toxicity in Artemia salina after 24 hrs. It is filed as organism-based. Particulars: in vivo, read-out: LD50.

Consider `CC1=C(O)[C@@](O)([C@@H]2C[C@H]3OC(=O)[C@H](C)[C@@H]4CCC[C@@]5(CC[C@H](O5)[C@H](O)[C@@]5(C)CC(=O)[C@H](O5)[C@H]5C[C@]6(C)CC[C@](O5)(O6)[C@H]5CC[C@](C)(C[C@@H](C)/C=C(C)/C=C/[C@H]3O2)O5)O4)OCC1`, for which the LC50 at 24 h came to 2.5 mg/L (≈ 2.92 µM).

Regarding `C=CCC/C=C/CCCC/C=C/[C@@H](O)[C@H](O)[C@@H]1O[C@@H]([C@H](O)[C@H](O)C(=C)CC[C@@H](O)[C@H]2C[C@@H](O)[C@@H](O)[C@H]([C@@H](O)[C@H](O)/C=C(C)/C=C/CC(O)CC(O)CNC(=O)C(O)C(O)C/C=C\C(O)C(O)/C(C)=C/CCCC(O)/C=C/CC(O)/C=C/CC(O)CN)O2)C[C@@H](O)[C@H]1O` (some centres not stated), the LC50 at 24 h was 0.9 mg/L (≈ 0.685 µM).
